The source made the active and inactive calls. No cut-off for these calls is given here.
Tested on: NCI-H157
Test: Cytotoxicity against human NCI-H157 cells at 100 uM after 48 hrs by sulforhodamine B assay
Assay type: functional

**Q.** For “Tributylstannyl 2-(4-methoxy-2-nitrophenylcarbamoyl)benzoate”, which Activity is on record?
**A.** 38.2%

Tested on: NCI-H157
Test: Cytotoxicity against human NCI-H157 cells at 10 uM after 48 hrs by sulforhodamine B assay
Assay type: functional

**Q.** For “Tributylstannyl 2-(4-methoxy-2-nitrophenylcarbamoyl)benzoate”, which Activity is on record?
**A.** 37.7%

Tested on: NCI-H157
Test: Cytotoxicity against human NCI-H157 cells at 1 uM after 48 hrs by sulforhodamine B assay
Assay type: functional

**Q.** “Tributylstannyl 2-(4-methoxy-2-nitrophenylcarbamoyl)benzoate” was tested. Which Activity did it give?
**A.** 35.6%

Tested on: NCI-H157
Test: Cytotoxicity against human NCI-H157 cells at 0.1 uM after 48 hrs by sulforhodamine B assay
Assay type: functional

**Q.** For “Tributylstannyl 2-(4-methoxy-2-nitrophenylcarbamoyl)benzoate”, which Activity is on record?
**A.** 32.1%

Tested on: Leishmania major
Test: Antileishmanial activity against Leishmania major promastigotes at 100 uM after 72 hrs by MTT assay relative to control
Assay type: functional

**Q.** For “Tributylstannyl 2-(4-methoxy-2-nitrophenylcarbamoyl)benzoate”, which Activity is on record?
**A.** 66.9%

Tested on: Leishmania major
Test: Antileishmanial activity against Leishmania major promastigotes at 10 uM after 72 hrs by MTT assay relative to control
Assay type: functional

**Q.** With “Tributylstannyl 2-(4-methoxy-2-nitrophenylcarbamoyl)benzoate” as the substance, how does the Activity read?
**A.** 63.3%

Tested on: Leishmania major
Test: Antileishmanial activity against Leishmania major promastigotes at 1 uM after 72 hrs by MTT assay relative to control
Assay type: functional

**Q.** “Tributylstannyl 2-(4-methoxy-2-nitrophenylcarbamoyl)benzoate” was tested. Which Activity did it give?
**A.** 57.4%

Tested on: Leishmania major
Test: Antileishmanial activity against Leishmania major promastigotes at 0.1 uM after 72 hrs by MTT assay relative to control
Assay type: functional

**Q.** “Tributylstannyl 2-(4-methoxy-2-nitrophenylcarbamoyl)benzoate” was tested. Which Activity did it give?
**A.** 52.6%

Tested on: Klebsiella pneumoniae
Test: Antibacterial activity against Klebsiella pneumoniae assessed as zone of inhibition after 24 to 48 hrs by well diffusion method
Assay type: functional

**Q.** With “Tributylstannyl 2-(4-methoxy-2-nitrophenylcarbamoyl)benzoate” as the substance, how does the inhibition zone (IZ) read?
**A.** 15 mm

Tested on: Streptococcus pyogenes
Test: Antibacterial activity against Streptococcus pyogenes assessed as zone of inhibition after 24 to 48 hrs by well diffusion method
Assay type: functional

**Q.** How did the “inhibition zone (IZ)” value turn out when “Tributylstannyl 2-(4-methoxy-2-nitrophenylcarbamoyl)benzoate” was run?
**A.** inactive

Tested on: Staphylococcus epidermidis
Test: Antibacterial activity against Staphylococcus epidermidis assessed as zone of inhibition after 24 to 48 hrs by well diffusion method
Assay type: functional

**Q.** Which inhibition zone (IZ) does the source give for “Tributylstannyl 2-(4-methoxy-2-nitrophenylcarbamoyl)benzoate” here?
**A.** 16 mm

Tested on: Staphylococcus aureus
Test: Antibacterial activity against Staphylococcus aureus assessed as zone of inhibition after 24 to 48 hrs by well diffusion method
Assay type: functional

**Q.** How did the “inhibition zone (IZ)” value turn out when “Tributylstannyl 2-(4-methoxy-2-nitrophenylcarbamoyl)benzoate” was run?
**A.** inactive

Tested on: Serratia marcescens
Test: Antibacterial activity against Serratia marcescens assessed as zone of inhibition after 24 to 48 hrs by well diffusion method
Assay type: functional

**Q.** “Tributylstannyl 2-(4-methoxy-2-nitrophenylcarbamoyl)benzoate” was tested. Which inhibition zone (IZ) did it give?
**A.** 12.7 mm

Tested on: Pseudomonas aeruginosa
Test: Antibacterial activity against Pseudomonas aeruginosa assessed as zone of inhibition after 24 to 48 hrs by well diffusion method
Assay type: functional

**Q.** How did the inhibition zone (IZ) turn out when “Tributylstannyl 2-(4-methoxy-2-nitrophenylcarbamoyl)benzoate” was run?
**A.** 15.7 mm

Tested on: Escherichia coli
Test: Antibacterial activity against Escherichia coli assessed as zone of inhibition after 24 to 48 hrs by well diffusion method
Assay type: functional

**Q.** With “Tributylstannyl 2-(4-methoxy-2-nitrophenylcarbamoyl)benzoate” as the substance, how does the inhibition zone (IZ) read?
**A.** 1.56 mm

Tested on: Klebsiella pneumoniae
Test: Antibacterial activity against Klebsiella pneumoniae assessed as zone of inhibition by measuring activity index after 24 to 48 hrs by well diffusion method relative to tetracycline
Assay type: functional, organism-based

**Q.** Which Activity index does the source give for “Tributylstannyl 2-(4-methoxy-2-nitrophenylcarbamoyl)benzoate” here?
**A.** 1.07

Tested on: Klebsiella pneumoniae
Test: Antibacterial activity against Klebsiella pneumoniae assessed as zone of inhibition by measuring activity index after 24 to 48 hrs by well diffusion method relative to ampicillin
Assay type: functional, organism-based

**Q.** For “Tributylstannyl 2-(4-methoxy-2-nitrophenylcarbamoyl)benzoate”, which Activity index is on record?
**A.** 2.5

Tested on: Klebsiella pneumoniae
Test: Antibacterial activity against Klebsiella pneumoniae assessed as zone of inhibition by measuring activity index after 24 to 48 hrs by well diffusion method relative to amoxicillin
Assay type: functional, organism-based

**Q.** Which Activity index does the source give for “Tributylstannyl 2-(4-methoxy-2-nitrophenylcarbamoyl)benzoate” here?
**A.** 2.5

Tested on: Streptococcus pyogenes
Test: Antibacterial activity against Streptococcus pyogenes assessed as zone of inhibition by measuring activity index after 24 to 48 hrs by well diffusion method relative to tetracycline
Assay type: functional, organism-based

**Q.** With “Tributylstannyl 2-(4-methoxy-2-nitrophenylcarbamoyl)benzoate” as the substance, how does the Activity_index read?
**A.** inactive

Tested on: Streptococcus pyogenes
Test: Antibacterial activity against Streptococcus pyogenes assessed as zone of inhibition by measuring activity index after 24 to 48 hrs by well diffusion method relative to penicillin G
Assay type: functional, organism-based

**Q.** “Tributylstannyl 2-(4-methoxy-2-nitrophenylcarbamoyl)benzoate” was tested. Which Activity_index did it give?
**A.** inactive

Tested on: Streptococcus pyogenes
Test: Antibacterial activity against Streptococcus pyogenes assessed as zone of inhibition by measuring activity index after 24 to 48 hrs by well diffusion method relative to ampicillin
Assay type: functional, organism-based

**Q.** “Tributylstannyl 2-(4-methoxy-2-nitrophenylcarbamoyl)benzoate” was tested. Which Activity_index did it give?
**A.** inactive

Tested on: Streptococcus pyogenes
Test: Antibacterial activity against Streptococcus pyogenes assessed as zone of inhibition by measuring activity index after 24 to 48 hrs by well diffusion method relative to amoxicillin
Assay type: functional, organism-based

**Q.** “Tributylstannyl 2-(4-methoxy-2-nitrophenylcarbamoyl)benzoate” was tested. Which Activity_index did it give?
**A.** inactive

Tested on: Staphylococcus epidermidis
Test: Antibacterial activity against Staphylococcus epidermidis assessed as zone of inhibition by measuring activity index after 24 to 48 hrs by well diffusion method relative to tetracycline
Assay type: functional, organism-based

**Q.** For “Tributylstannyl 2-(4-methoxy-2-nitrophenylcarbamoyl)benzoate”, which Activity index is on record?
**A.** 1.6

Tested on: Staphylococcus epidermidis
Test: Antibacterial activity against Staphylococcus epidermidis assessed as zone of inhibition by measuring activity index after 24 to 48 hrs by well diffusion method relative to amoxicillin
Assay type: functional, organism-based

**Q.** For “Tributylstannyl 2-(4-methoxy-2-nitrophenylcarbamoyl)benzoate”, which Activity index is on record?
**A.** 8

Tested on: Staphylococcus aureus
Test: Antibacterial activity against Staphylococcus aureus assessed as zone of inhibition by measuring activity index after 24 to 48 hrs by well diffusion method relative to tetracycline
Assay type: functional, organism-based

**Q.** Which Activity_index does the source give for “Tributylstannyl 2-(4-methoxy-2-nitrophenylcarbamoyl)benzoate” here?
**A.** inactive

Tested on: Staphylococcus aureus
Test: Antibacterial activity against Staphylococcus aureus assessed as zone of inhibition by measuring activity index after 24 to 48 hrs by well diffusion method relative to penicillin G
Assay type: functional, organism-based

**Q.** For “Tributylstannyl 2-(4-methoxy-2-nitrophenylcarbamoyl)benzoate”, which Activity_index is on record?
**A.** inactive

Tested on: Staphylococcus aureus
Test: Antibacterial activity against Staphylococcus aureus assessed as zone of inhibition by measuring activity index after 24 to 48 hrs by well diffusion method relative to ampicillin
Assay type: functional, organism-based

**Q.** Which Activity_index does the source give for “Tributylstannyl 2-(4-methoxy-2-nitrophenylcarbamoyl)benzoate” here?
**A.** inactive

Tested on: Staphylococcus aureus
Test: Antibacterial activity against Staphylococcus aureus assessed as zone of inhibition by measuring activity index after 24 to 48 hrs by well diffusion method relative to amoxicillin
Assay type: functional, organism-based

**Q.** How did the Activity_index turn out when “Tributylstannyl 2-(4-methoxy-2-nitrophenylcarbamoyl)benzoate” was run?
**A.** inactive

Tested on: Serratia marcescens
Test: Antibacterial activity against Serratia marcescens assessed as zone of inhibition by measuring activity index after 24 to 48 hrs by well diffusion method relative to penicillin G
Assay type: functional

**Q.** For “Tributylstannyl 2-(4-methoxy-2-nitrophenylcarbamoyl)benzoate”, which Activity index is on record?
**A.** 1.58

Tested on: Serratia marcescens
Test: Antibacterial activity against Serratia marcescens assessed as zone of inhibition by measuring activity index after 24 to 48 hrs by well diffusion method relative to ampicillin
Assay type: functional

**Q.** With “Tributylstannyl 2-(4-methoxy-2-nitrophenylcarbamoyl)benzoate” as the substance, how does the Activity index read?
**A.** 1.58

Tested on: Serratia marcescens
Test: Antibacterial activity against Serratia marcescens assessed as zone of inhibition by measuring activity index after 24 to 48 hrs by well diffusion method relative to amoxicillin
Assay type: functional

**Q.** Which Activity index does the source give for “Tributylstannyl 2-(4-methoxy-2-nitrophenylcarbamoyl)benzoate” here?
**A.** 2.11

Tested on: Pseudomonas aeruginosa
Test: Antibacterial activity against Pseudomonas aeruginosa assessed as zone of inhibition by measuring activity index after 24 to 48 hrs by well diffusion method relative to tetracycline
Assay type: functional, organism-based

**Q.** How did the Activity index turn out when “Tributylstannyl 2-(4-methoxy-2-nitrophenylcarbamoyl)benzoate” was run?
**A.** 2.61

Tested on: Pseudomonas aeruginosa
Test: Antibacterial activity against Pseudomonas aeruginosa assessed as zone of inhibition by measuring activity index after 24 to 48 hrs by well diffusion method relative to penicillin G
Assay type: functional, organism-based

**Q.** “Tributylstannyl 2-(4-methoxy-2-nitrophenylcarbamoyl)benzoate” was tested. Which Activity index did it give?
**A.** 2.61

Tested on: Pseudomonas aeruginosa
Test: Antibacterial activity against Pseudomonas aeruginosa assessed as zone of inhibition by measuring activity index after 24 to 48 hrs by well diffusion method relative to amoxicillin
Assay type: functional, organism-based

**Q.** How did the Activity index turn out when “Tributylstannyl 2-(4-methoxy-2-nitrophenylcarbamoyl)benzoate” was run?
**A.** 2.61

Tested on: Escherichia coli
Test: Antibacterial activity against Escherichia coli assessed as zone of inhibition by measuring activity index after 24 to 48 hrs by well diffusion method relative to tetracycline
Assay type: functional

**Q.** With “Tributylstannyl 2-(4-methoxy-2-nitrophenylcarbamoyl)benzoate” as the substance, how does the Activity index read?
**A.** 0.78

Tested on: DNA
Test: Binding affinity to single-stranded DNA (unknown origin) after 10 mins by UV-visible spectrometric method
Assay type: nucleic-acid assay

**Q.** Which K does the source give for “Tributylstannyl 2-(4-methoxy-2-nitrophenylcarbamoyl)benzoate” here?
**A.** 7.6 ×10³ /M

Tested on: NCI-H157
Test: Cytotoxicity against human NCI-H157 cells after 48 hrs by sulforhodamine B assay
Assay type: functional, cell-based

**Q.** How did the Activity turn out when “Tributylstannyl 2-(4-methoxy-2-nitrophenylcarbamoyl)benzoate” was run?
**A.** Dose-dependent effect

Tested on: DNA
Test: Binding affinity to single-stranded DNA (unknown origin) assessed as red shift up to 72 uM after 10 mins by UV-visible spectrometric method
Assay type: nucleic-acid assay

**Q.** How did the Activity turn out when “Tributylstannyl 2-(4-methoxy-2-nitrophenylcarbamoyl)benzoate” was run?
**A.** < 3 nm
